Results published in US9206173B2, “Heterocyclic compounds for the treatment of stress-related conditions” (OTSUKA PHARMACEUTICAL CO., LTD., priority 2009, dated 2015).
Counter-ions that a name gives are not always drawn. Like-named read-outs stand apart in the source and are kept apart here.

Legend:
[1] = target: T1, human GPR10 (Homo sapiens (Human), UniProt P49683); experiment: Inhibitory activity on binding of [3H]-PrRP to GPR10 (HEK 293 cell membrane fraction)
Procedure: Inhibitory Activity on Binding of [^3H]-PrRP to GPR10
Human GPR10 receptor expressing human embryonic kidney cells, HEK 293 cells, were cultured in Dulbecco's Modified Eagle's medium supplemented with 10% fetal bovine serum and 1% penicilline-streptmycin at 37° C., in 5% carbon dioxide gas conditions. The medium was removed and the cells were recovered in a phosphate buffer to prepare a cell suspension. The cell suspension was homogenated on ice by an ultrasonic cell homogenizer (Microson™ type XL200) and centrifuged at 40,000 g for 10 minutes at 4° C. After the supernatant was discarded, Buffer A (20 mM HEPES, 10 mM EDTA, 1 μl/ml protease inhibiting cocktail, pH 7.4) was added to the pellet. The pellet was suspended by the ultrasonic cell homogenizer, then the suspension was centrifuged at 40,000 g, for 10 minutes at 4° C. After this operation was repeated once again, the supernatant was discarded, Buffer B (20 mM HEPES, 0.1 mM EDTA, pH 7.4) was added to the pellet, and the pellet was suspended by the ultrasonic homogenizer. This was stored at a freezer of −80° C. as a cell membrane fraction until use in a binding test.
To each well of a 96-well plate, 150 μl of assay buffer (20 mM HEPES, 10 mM EDTA, 1 μl/ml protease inhibiting agent cocktail, pH 7.4), 20 μl of cell membrane fraction, 10 μl of test compound and [^3H]-PrRP (final concentration 1 nM) were added and incubated at room temperature for 90 minutes. After completion of the reaction, using a cell harvester, the cell-membrane fraction sample product was filtered under aspiration by a glass fiber filter plate (Unifilter; GF/B) previously treated with 0.5% polyethylene imine. The filter was washed with a 50 mM Tris hydrochloric acid buffer (pH 7.4) three times. After the filter was dried in a dryer (50° C.) for about 3 hours, 40 μl of liquid scintillation cocktail (MicroScint-O) was added to each well and radio activity was measured by a scintillation counter (Packard Topcount). The radio activity in the presence of an excessive amount of non-labeled PrRP (final concentration: 100 nM) was regarded as non-specific binding.
The binding inhibition rate was calculated based on calculating formula: 100−(radio activity when a compound is added−radio activity of non-specific binding)÷(radio activity when a solvent is added−radio activity of non-specific binding)×100.
An IC50 value was calculated based on the concentration dependent reaction using a non-linear analysis program and a Ki value was calculated using Cheng-Prussoff formula.

[2] = target: T1, human GPR10; experiment: Antagonistic activity on PrRP-induced intracellular calcium mobilization in human GPR10-expressing HEK293 cells; type: cell-based; settings: PrRP 1 nM-induced intracellular calcium mobilization, Fluo-8
Procedure: Pharmacological Test 2 Antagonistic Activity on GPR10 Using Human GPR10-Expressing HEK293 Cells.
Antagonistic activity of test compounds on PrRP-induced intracellular calcium mobilization was evaluated using GPR10-expressing HEK293 cells.
HEK293 cells expressing human GPR10 were maintained in Dulbecco's Modified Eagles' medium supplemented with 10% fetal bovine serum, 1% penicillin-streptomycin and 20 mM HEPES at 37° C. in a 5% CO2 incubator. GPR10-expressing HEK293 cells were placed in poly-D-lysine coated 96-well culture plates and cultured for 18-24 hr before the test at a density of 3×10^4 cells/well. […] The cells were incubated with test compounds for 15 min at room temperature, and then PrRP (the final concentration, 1 nM) was added into the medium. The changes in intracellular calcium-dependent fluorescence were monitored using a fluorescence imaging plate reader (FDSS3000, Hamamatsu Photonics K.K.). Fluo-8 fluorescence was measured with excitation at 490 nm and emission at 520 nm. The calcium-dependent fluorescence intensity was calculated by subtracting basal intensity (average intensity for 30 sec before agonist stimulation) from peak intensity for 60 sec after PrRP-stimulation, and then IC50 values were determined by nonlinear curve-fitting program, GraphPad Prism 5.

[3] = [3H]-PrRP 1 nM, human GPR10-expressing HEK 293 cell membrane fraction, Ki from IC50 by Cheng-Prussoff formula

T1 sequence (P49683 whole entry): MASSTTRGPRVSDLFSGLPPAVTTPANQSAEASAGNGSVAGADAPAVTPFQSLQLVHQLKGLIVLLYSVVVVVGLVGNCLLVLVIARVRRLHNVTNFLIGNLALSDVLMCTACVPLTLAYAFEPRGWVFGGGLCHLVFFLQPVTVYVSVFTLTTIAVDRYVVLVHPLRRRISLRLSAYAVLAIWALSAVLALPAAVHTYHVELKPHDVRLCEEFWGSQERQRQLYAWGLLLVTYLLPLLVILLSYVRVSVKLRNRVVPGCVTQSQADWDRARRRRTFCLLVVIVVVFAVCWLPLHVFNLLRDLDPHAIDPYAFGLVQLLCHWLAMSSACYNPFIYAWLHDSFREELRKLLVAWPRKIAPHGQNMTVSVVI

Ki [1]	Compound	Ki [1, 3]	IC50 [2]
–	CCOn1c(N[C@H](C)c2ccc(C(F)(F)F)cc2)nc2c(c1=O)CN(C(=O)c1ccc(Cl)cc1)CC2 [Example 86]	0.025 µM	3.71 µM
–	CCOn1c(N[C@H](C)c2ccc(C(F)(F)F)cc2)nc2c(c1=O)CN(C(=O)c1ccc(C#N)cc1)CC2 [Example 92]	0.011 µM	0.156 µM
–	CCOn1c(N[C@H](C)c2ccc(C(F)(F)F)cc2)nc2c(c1=O)CN(C(=O)c1ccc(C#N)cc1F)CC2 [Example 95]	0.005 µM	0.227 µM
–	CCOn1c(N[C@H](C)c2ccc(C(F)(F)F)cc2)nc2c(c1=O)CN(C(=O)c1ccc(-c3cnco3)cc1)CC2 [Example 104]	0.02 µM	0.158 µM
–	CCOn1c(N[C@H](C)c2ccc(C(F)(F)F)cc2)nc2c(c1=O)CN(C(=O)c1cc3cccnc3s1)CC2 [Example 121]	0.017 µM	1.68 µM
–	C[C@@H](Nc1nc2c(c(=O)n1N1CCCC1)CN(C(=O)c1ccc(C#N)cc1)CC2)c1ccc(C(F)(F)F)cc1 [Example 163]	0.01 µM	0.648 µM
–	C[C@@H](Nc1nc2c(c(=O)n1N1CCCC1)CN(C(=O)c1ccc(C#N)cc1F)CC2)c1ccc(C(F)(F)F)cc1 [Example 166]	0.006 µM	0.298 µM
–	COn1c(N[C@@H](C)c2ccc(C(F)(F)F)cc2)nc2c(c1=O)CN(C(=O)COc1ccc(Cl)cc1)CC2 [Example 2389, 6-[2-(4-chlorophenoxy)acetyl]-3-methoxy-2-[(S)-1-(4-trifluoromethylphenyl)ethylamino]-5,6,7,8-tetrahydro-3H-pyrido[4,3-d]pyrimidin-4-one]	0.008 µM	0.678 µM
–	COn1c(N[C@@H](C)c2ccc(C(F)(F)F)cc2)nc2c(c1=O)CN(C(=O)CSc1ccc(Cl)cc1)CC2 [Example 2390, 6-[2-(4-chlorophenylsulfanyl)acetyl]-3-methoxy-2-[(S)-1-(4-trifluoromethylphenyl)ethylamino]-5,6,7,8-tetrahydro-3H-pyrido[4,3-d]pyrimidin-4-one]	0.008 µM	1.14 µM
–	COn1c(N[C@@H](C)c2ccc(C(F)(F)F)cc2)nc2c(c1=O)CN(C(=O)CCc1ccc(Cl)cc1)CC2 [Example 2391, 6-[3-(4-chlorophenyl)propionyl]-3-methoxy-2-[(S)-1-(4-trifluoromethylphenyl)ethylamino]-5,6,7,8-tetrahydro-3H-pyrido[4,3-d]pyrimidin-4-one]	0.134 µM	3.9 µM
0.012 µM	COn1c(N[C@@H](C)c2ccc(C(F)(F)F)cc2)nc2c(c1=O)CN(C(=O)/C=C/c1ccc(Cl)cc1)CC2 [Example 2392, 6-[(E)-3-(4-chlorophenyl)acryloyl]-3-methoxy-2-[(S)-1-(4-trifluoromethylphenyl)ethylamino]-5,6,7,8-tetrahydro-3H-pyrido[4,3-d]pyrimidin-4-one]	–	5.79 µM
–	CC#CCn1c(N[C@@H](C)c2ccc(C(F)(F)F)cc2)nc2c(c1=O)CN(C(=O)c1ccc(-n3ccnc3)cc1)CC2 [Example 2402, 3-(2-butynyl)-6-(4-imidazol-1-ylbenzoyl)-2-[(S)-1-(4-trifluoromethylphenyl)ethylamino]-5,6,7,8-tetrahydro-3H-pyrido[4,3-d]pyrimidin-4-one dihydrochloride]	0.006 µM	0.099 µM
–	COn1c(N[C@@H](C)c2ccc(C(F)(F)F)cc2)nc2c(c1=O)CN(C(=O)c1ccc(C)s1)CC2 [Example 2404, 3-methoxy-6-(5-methyl-thiophene-2-carbonyl)-2-[(S)-1-(4-trifluoromethylphenyl)ethylamino]-5,6,7,8-tetrahydro-3H-pyrido[4,3-d]pyrimidin-4-one]	0.01 µM	1.13 µM
–	COn1c(N[C@@H](C)c2ccc(C(F)(F)F)cc2)nc2c(c1=O)CN(C(=O)c1ccc(Cl)s1)CC2 [Example 2405, 6-(5-chlorothiophene-2-carbonyl)-3-methoxy-2-[(S)-1-(4-trifluoromethylphenyl)ethylamino]-5,6,7,8-tetrahydro-3H-pyrido[4,3-d]pyrimidin-4-one]	0.015 µM	8.79 µM
–	CC#CCn1c(N[C@@H](C)c2ccc(C(F)(F)F)cc2)nc2c(c1=O)CN(C(=O)c1ccc(C#N)cc1F)CC2 [Example 2406, 4-{3-(2-butynyl)-4-oxo-2-[(S)-1-(4-trifluoromethylphenyl)ethylamino]-3,5,7,8-tetrahydro-4H-pyrido[4,3-d]pyrimidine-6-carbonyl}-3-fluorobenzonitrile hydrochloride]	0.002 µM	0.078 µM
–	CC#CCn1c(N[C@@H](C)c2ccc(C(F)(F)F)cc2)nc2c(c1=O)CN(C(=O)c1ccc(C#N)cc1)CC2 [Example 2407, 4-{3-(2-butynyl)-4-oxo-2-[(S)-1-(4-trifluoromethylphenyl)ethylamino]-3,5,7,8-tetrahydro-4H-pyrido[4,3-d]pyrimidine-6-carbonyl}benzonitrile hydrochloride]	0.008 µM	0.207 µM
–	CC#CCn1c(N[C@@H](C)c2ccc(C(F)(F)F)cc2)nc2c(c1=O)CN(C(=O)c1ccc(Cl)cc1)CC2 [Example 2409, 3-(2-butynyl)-6-(4-chlorobenzoyl)-2-[(S)-1-(4-trifluoromethylphenyl)ethylamino]-5,6,7,8-tetrahydro-3H-pyrido[4,3-d]pyrimidin-4-one hydrochloride]	0.016 µM	2.44 µM
–	CC#CCn1c(N[C@@H](C)c2ccc(C(F)(F)F)cc2)nc2c(c1=O)CN(C(=O)c1ccc(-c3cnco3)cc1)CC2 [Example 2410, 3-(2-butynyl)-6-(4-oxazol-5-ylbenzoyl)-2-[(S)-1-(4-trifluoromethylphenyl)ethylamino]-5,6,7,8-tetrahydro-3H-pyrido[4,3-d]pyrimidin-4-one hydrochloride]	0.01 µM	0.665 µM
–	CC#CCn1c(N[C@@H](C)c2ccc(C(F)(F)F)cc2)nc2c(c1=O)CN(C(=O)c1cc3ccccn3n1)CC2 [Example 2411, 3-(2-butynyl)-6-(pyrazolo[1,5-a]pyridine-2-carbonyl)-2-[(S)-1-(4-trifluoromethylphenyl)ethylamino]-5,6,7,8-tetrahydro-3H-pyrido[4,3-d]pyrimidin-4-one hydrochloride]	0.02 µM	0.776 µM
–	CC#CCn1c(N[C@@H](C)c2ccc(C(F)(F)F)cc2)nc2c(c1=O)CN(C(=O)c1ccc3c(c1)CCC(=O)N3)CC2 [Example 2412, 3-(2-butynyl)-6-(2-oxo-1,2,3,4-tetrahydro-quinoline-6-carbonyl)-2-[(S)-1-(4-trifluoromethylphenyl)ethylamino]-5,6,7,8-tetrahydro-3H-pyrido[4,3-d]pyrimidin-4-one hydrochloride]	0.008 µM	0.259 µM
–	CC#CCn1c(N[C@@H](C)c2ccc(C(F)(F)F)cc2)nc2c(c1=O)CN(C(=O)c1ccc3cccnc3c1)CC2 [Example 2417, 3-(2-butynyl)-6-(quinoline-7-carbonyl)-2-[(S)-1-(4-trifluoromethylphenyl)ethylamino]-5,6,7,8-tetrahydro-3H-pyrido[4,3-d]pyrimidin-4-one dihydrochloride]	0.017 µM	0.78 µM
–	COc1ccc(C(=O)N2CCc3nc(N[C@@H](C)c4ccc(C(F)(F)F)cc4)n(OC)c(=O)c3C2)c(OC)n1 [Example 2419, 6-(2,6-dimethoxypyridine-3-carbonyl)-3-methoxy-2-[(S)-1-(4-trifluoromethylphenyl)ethylamino]-5,6,7,8-tetrahydro-3H-pyrido[4,3-d]pyrimidin-4-one]	0.007 µM	0.228 µM
